Results: US20220409629A1, “BENZODIAZEPINE DERIVATIVES FOR TREATING A RESPIRATORY SYNCYTIAL VIRUS (RSV) INFECTION” (priority 2019, published 2022)

Assays:
Cell cytotoxicity CC50 = assay type: cell-based; conditions: human; mean of at least two experiments
[1] = Liver microsomal stability, rat; assay type: in vitro ADME; conditions: pH 7.4; rat liver microsomes, 0.5 mg/mL protein, 1 μM compound, NADPH; >80% remaining at 45 min denoted >140; read-out: Liver Microsomal Stability: t1/2 (min); rat
Procedure, shortened: (§1)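 Pooled liver microsomes (0.5 mg/mL protein) in 0.1 M phosphate pH 7.4 with 1 μM compound (0.25% DMSO), started with 1 mM NADPH at 37° C; sampled 0-45 min, minus-NADPH control 45 min. LC-MS/MS depletion slope gave t1/2 and CLint.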

[2] = Liver microsomal stability, human; assay type: in vitro ADME; conditions: pH 7.4; human liver microsomes, 0.5 mg/mL protein, 1 μM compound, NADPH; >80% remaining at 45 min denoted >140; read-out: Liver Microsomal Stability: t1/2 (min); human
Procedure, shortened: as §1

[3] = Liver microsomal stability, dog; assay type: in vitro ADME; conditions: pH 7.4; dog liver microsomes, 0.5 mg/mL protein, 1 μM compound, NADPH; >80% remaining at 45 min denoted >140; read-out: Liver Microsomal Stability: t1/2 (min); dog
Procedure, shortened: as §1

[4] = Liver hepatocyte stability, rat; assay type: in vitro ADME; conditions: rat hepatocytes, 3 μM compound, 60 min, >80% remaining at 60 min denoted >186, read-out: Liver Hepatocyte Stability: t1/2 (min)
Description: (§2) Cryopreserved pooled hepatocytes were purchased from a reputable commercial supplier and stored in liquid nitrogen prior to use. Williams E media supplemented with 2 mM L-glutamine and 25 mM HEPES and test compound (final substrate concentration 3 μM; final DMSO concentration 0.25%) are pre-incubated at 37° C. prior to the addition of a suspension of cryopreserved hepatocytes (final cell density 0.5×10^6 viable cells/mL in Williams E media supplemented with 2 mM L-glutamine and 25 mM HEPES) to initiate the reaction. The final incubation volume is 500 μL. Two control compounds were included with each species, alongside appropriate vehicle control. The reactions are stopped by transferring 50 μL of incubate to 100 μL acetonitrile containing internal standard at the appropriate time points. Samples were removed at 6 time points (0, 5, 15, 30, 45 and 60 min) over the course of a 60 min experiment. The termination plates are centrifuged at 2500 rpm at 4° C. for 30 min to precipitate the protein. Following protein precipitation, the sample supernatants were combined in cassettes of up to 4 compounds and analysed using generic LC-MS/MS conditions. From a plot of ln peak area ratio (compound peak area/internal standard peak area) against time, the gradient of the line is determined. Subsequently, half-life (t1/2) and intrinsic clearance (CLint) were calculated.

[5] = Rat pharmacokinetics in vivo; conditions: male Sprague Dawley rats; for C 8 h / Cmax: doses 1 mg/kg (IV) and 10 mg/kg (PO); for Vd / clearance / bioavailability / half-life / AUC(0-t) / Cmax: rat, in vivo; for AUC(0-t): read-out: PO AUClast
Description: The pharmacokinetics of compounds were studied in vivo in rats at doses of 1 mg/kg (IV) and 10 mg/kg (PO).
Male rats (Sprague Dawley) surgically prepared with a jugular vein cannula were treated with experimental compounds via intravenous administration (IV; n=3; 1 mg/kg) or oral administration (PO; n=3; 10 mg/kg). Compounds were formulated as a solution in 40:60 dimethylacetamide:saline (IV administration), a suspension in 1% methyl cellulose (viscosity: 15 cP), 0.1% Tween80 in water (PO administration: Example 3), a solution in 10% DMSO/10% Cremaphor/80% water (PO administration: Examples 4, 11, 21, 23, 25, 26, 32) or a solution in 10% DMSO/20% Cremaphor/70% water (PO administration: Examples 19, 20, 22, 24, 30). […] Serial blood samples were collected via the cannula at 0.02, 0.08, 0.25, 0.5, 1, 2, 4, 6, 8 and 24 h post IV dosing of compound, and at 0.08, 0.25, 0.5, 1, 2, 4, 6, 8 and 24 h post oral dosing of compound, and plasma was prepared by centrifugation and stored immediately at −80° C. Samples were subsequently thawed, prepared for analysis by protein precipitation with acetonitrile, and analysed by tandem LCMS using electrospray ionisation using a matrix-matched calibration curve. PK parameters were calculated from the resulting data.

RSV A2 = experiment: RSV plaque reduction assay; assay type: cell-based, respiratory syncytial virus (RSV); conditions: human respiratory syncytial virus, HepG2; Hep-G2 cells, RSV A2, mean of at least two experiments
Procedure, shortened: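 RSV A2 (100 PFU/well) premixed with eight serial compound dilutions, added to confluent Hep-G2 monolayers for 2 h at 37° C, then held 2 days under CMC overlay containing compound (DMEM, 2% FBS). Plaques immunostained (HRP/TrueBlue) and counted; EC50 is 50% reduction versus virus control from 4-parameter fit, mean of ≥2 experiments.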

[6] = Liver hepatocyte stability, human; assay type: in vitro ADME; conditions: human hepatocytes, 3 μM compound, 60 min, >80% remaining at 60 min denoted >186, read-out: Liver Hepatocyte Stability: t1/2 (min)
Description: as §2

[7] = Liver hepatocyte stability, dog; assay type: in vitro ADME; conditions: dog hepatocytes, 3 μM compound, 60 min, >80% remaining at 60 min denoted >186, read-out: Liver Hepatocyte Stability: t1/2 (min)
Description: as §2

[8] = IV 1 mg/kg, read-out: IV t½ (converted)
[9] = PO 10 mg/kg, read-out: PO t½ (converted)

CCn1ncc(C(=O)N[C@H]2N=C(c3ccccc3)c3cccc(F)c3NC2=O)c1-c1ccc(NC2CC2)nc1F [Example 11, 5-[6-(Cyclopropylamino)-2-fluoropyridin-3-yl]-1-ethyl-N-[(3S)-9-fluoro-2-oxo-5-phenyl-1,3-dihydro-1,4-benzodiazepin-3-yl]pyrazole-4-carboxamide]
CC50 (Cell cytotoxicity CC50): > 25000 nM | half-life [1]: 76.3 min | half-life [2]: 82.4 min | half-life [3]: 24 min | half-life [4]: 151 min | C 8 h [5]: 673 ng/mL | Vd ([5]; IV 1 mg/kg): 2 L/kg | clearance ([5]; IV 1 mg/kg): 13.9 mL/min/kg | bioavailability ([5]; IV 1 mg/kg, PO 10 mg/kg): 93% | half-life [5, 8]: 3.2 h | AUC(0-t) ([5]; PO 10 mg/kg): 11200 ng·h/mL | half-life [5, 9]: 2.2 h | Cmax [5]: 984 ng/mL | EC50 (RSV A2): 62 nM | half-life [6]: 194 min | half-life [7]: 48.2 min

O=C(N[C@H]1N=C(c2ccccc2)c2cccc(F)c2NC1=O)c1cnn(C2COC2)c1-c1ccc(NC2CC2)nc1F [Example 19, 5-[6-(Cyclopropylamino)-2-fluoropyridin-3-yl]-1-(oxetan-3-yl)-N-[(3S)-9-fluoro-2-oxo-5-phenyl-1,3-dihydro-1,4-benzodiazepin-3-yl]pyrazole-4-carboxamide]
CC50 (Cell cytotoxicity CC50): > 25000 nM | half-life [1]: > 140 min | half-life [2]: 154 min | half-life [3]: 90.8 min | half-life [4]: 185 min | C 8 h [5]: 315 ng/mL | Vd ([5]; IV 1 mg/kg): 1.6 L/kg | clearance ([5]; IV 1 mg/kg): 14.3 mL/min/kg | bioavailability ([5]; IV 1 mg/kg, PO 10 mg/kg): 64.6% | half-life [5, 8]: 1.7 h | AUC(0-t) ([5]; PO 10 mg/kg): 7290 ng·h/mL | half-life [5, 9]: 3 h | Cmax [5]: 1320 ng/mL | EC50 (RSV A2): 37 nM | half-life [6]: > 186 min | half-life [7]: 72.2 min

O=C(N[C@H]1N=C(c2ccccc2)c2ccccc2NC1=O)c1cnn(C2CCOCC2)c1-c1ccc(NC2CC2)nc1F [Example 20, 5-[6-(Cyclopropylamino)-2-fluoropyridin-3-yl]-N-[(3S)-2-oxo-5-phenyl-1,3-dihydro-1,4-benzodiazepin-3-yl]-1-(oxan-4-yl)pyrazole-4-carboxamide]
CC50 (Cell cytotoxicity CC50): > 25000 nM | half-life [1]: 116 min | half-life [2]: 83.1 min | half-life [3]: 325 min | half-life [4]: 115 min | C 8 h [5]: 25.7 ng/mL | Vd ([5]; IV 1 mg/kg): 2.9 L/kg | clearance ([5]; IV 1 mg/kg): 32.9 mL/min/kg | bioavailability ([5]; IV 1 mg/kg, PO 10 mg/kg): 23.9% | half-life [5, 8]: 1.5 h | AUC(0-t) ([5]; PO 10 mg/kg): 1170 ng·h/mL | half-life [5, 9]: 1.4 h | Cmax [5]: 258 ng/mL | EC50 (RSV A2): 59 nM | half-life [6]: 190 min | half-life [7]: > 186 min

CC(C)Nc1ccc(-c2c(C(=O)N[C@H]3N=C(c4ccccc4)c4ccccc4NC3=O)cnn2C2CCOCC2)c(F)n1 [Example 23, 5-[2-Fluoro-6-(propan-2-ylamino)pyridin-3-yl]-1-(oxan-4-yl)-N-[(3S)-2-oxo-5-phenyl-1,3-dihydro-1,4-benzodiazepin-3-yl]pyrazole-4-carboxamide]
CC50 (Cell cytotoxicity CC50): > 25000 nM | half-life [4]: 96.7 min | C 8 h [5]: 146 ng/mL | Vd ([5]; IV 1 mg/kg): 1.7 L/kg | clearance ([5]; IV 1 mg/kg): 12.2 mL/min/kg | bioavailability ([5]; IV 1 mg/kg, PO 10 mg/kg): 34.7% | half-life [5, 8]: 2.2 h | AUC(0-t) ([5]; PO 10 mg/kg): 4630 ng·h/mL | half-life [5, 9]: 3 h | Cmax [5]: 930 ng/mL | EC50 (RSV A2): 50 nM | half-life [6]: > 186 min | half-life [7]: 127 min

CCn1cc(C(=O)N[C@H]2N=C(c3ccccc3)c3ccccc3NC2=O)c(-c2ccc(NC3CC3)nc2F)n1 [Example 25, 3-[6-(Cyclopropylamino)-2-fluoropyridin-3-yl]-1-ethyl-N-[(3S)-2-oxo-5-phenyl-1,3-dihydro-1,4-benzodiazepin-3-yl]pyrazole-4-carboxamide]
CC50 (Cell cytotoxicity CC50): > 25000 nM | half-life [1]: 46.3 min | half-life [2]: 82.8 min | half-life [3]: 17 min | half-life [4]: > 186 min | C 8 h [5]: 294 ng/mL | Vd ([5]; IV 1 mg/kg): 0.9 L/kg | clearance ([5]; IV 1 mg/kg): 15.9 mL/min/kg | bioavailability ([5]; IV 1 mg/kg, PO 10 mg/kg): 71.5% | half-life [5, 8]: 1.3 h | AUC(0-t) ([5]; PO 10 mg/kg): 7470 ng·h/mL | half-life [5, 9]: 2.7 h | Cmax [5]: 1150 ng/mL | EC50 (RSV A2): 49 nM | half-life [6]: 506 min | half-life [7]: 68.1 min

CCn1cc(C(=O)N[C@H]2N=C(c3ccccc3)c3cccc(F)c3NC2=O)c(-c2ccc(NC3CC3)nc2F)n1 [Example 26, 3-[6-(Cyclopropylamino)-2-fluoropyridin-3-yl]-1-ethyl-N-[(3S)-9-fluoro-2-oxo-5-phenyl-1,3-dihydro-1,4-benzodiazepin-3-yl]pyrazole-4-carboxamide]
CC50 (Cell cytotoxicity CC50): > 25000 nM | half-life [1]: 70.2 min | half-life [2]: 84.9 min | half-life [3]: 30.8 min | half-life [4]: > 186 min | C 8 h [5]: 919 ng/mL | Vd ([5]; IV 1 mg/kg): 1.1 L/kg | clearance ([5]; IV 1 mg/kg): 8.2 mL/min/kg | bioavailability ([5]; IV 1 mg/kg, PO 10 mg/kg): 95.6% | half-life [5, 8]: 2.6 h | AUC(0-t) ([5]; PO 10 mg/kg): 19400 ng·h/mL | half-life [5, 9]: 2.6 h | Cmax [5]: 2120 ng/mL | EC50 (RSV A2): 36 nM | half-life [6]: > 186 min | half-life [7]: 160 min

CC(C)(C)n1cc(C(=O)N[C@H]2N=C(c3ccccc3)c3cccc(F)c3NC2=O)c(-c2ccc(NC3CC3)nc2F)n1 [Example 30, 1-tert-Butyl-3-[6-(cyclopropylamino)-2-fluoropyridin-3-yl]-N-[(3S)-9-fluoro-2-oxo-5-phenyl-1,3-dihydro-1,4-benzodiazepin-3-yl]pyrazole-4-carboxamide]
CC50 (Cell cytotoxicity CC50): > 25000 nM | half-life [1]: 53.1 min | half-life [2]: 253 min | half-life [3]: 63.7 min | half-life [4]: 98.5 min | C 8 h [5]: 444 ng/mL | Vd ([5]; IV 1 mg/kg): 1.4 L/kg | clearance ([5]; IV 1 mg/kg): 11.2 mL/min/kg | bioavailability ([5]; IV 1 mg/kg, PO 10 mg/kg): 57% | half-life [5, 8]: 1.8 h | AUC(0-t) ([5]; PO 10 mg/kg): 8540 ng·h/mL | half-life [5, 9]: 3 h | Cmax [5]: 918 ng/mL | EC50 (RSV A2): 32 nM | half-life [6]: 71.3 min | half-life [7]: > 186 min

CCNc1ccc(-c2c(C(=O)N[C@H]3N=C(c4ccccc4)c4ccccc4NC3=O)cnn2C2CCOCC2)c(F)n1 [Example 42, 5-[6-(Ethylamino)-2-fluoropyridin-3-yl]-1-(oxan-4-yl)-N-[(3S)-2-oxo-5-phenyl-1,3-dihydro-1,4-benzodiazepin-3-yl]pyrazole-4-carboxamide]
CC50 (Cell cytotoxicity CC50): > 25000 nM | half-life [1]: 85.8 min | half-life [2]: 194 min | half-life [3]: 480 min | half-life [4]: 72.3 min | EC50 (RSV A2): 41 nM | half-life [6]: 421 min | half-life [7]: 100 min
